Experimental findings from patent US6248309A, “Gums containing antimicrobial agents” (priority 1999, dated 2001) are described below.

Several values for one entry are separate records, joined by “and”; a condition that tells them apart may be missing. Equal values may be shown once. Read-outs that look alike come from different tables or passages of the source.

Series [1] deals with Actinomyces viscosus (AV). Description: MIC of agents alone, in pairs and in three-agent combination (Example 2). The conditions noted are these: AV, agent used alone. Format: cell-based, Actinomyces viscosus ATCC 19246. The text has this: (§1) In addition, the example describes how the MIC of antimicrobial agents in the combinations are reduced compared to the MIC of those antimicrobial agents alone and the MIC of those agents in various pairings. Numerous combinations of the antimicrobial agents described herein were combined to form combinations comprising three antimicrobial agents or triplets. Each of the formed triplets included either cedarwood oil or berberine hydrochloride.
(§2) The protocol used was a variation of the procedure described above in Example 1. The assay was carried out in the two-dimensional array of a 96-well plate. In order to evaluate three agents, two of the agents were paired against the third agent. For example, varying concentrations of antimicrobial agent A plus antimicrobial agent B versus varying concentrations of antimicrobial agent C were evaluated on one 96-well plate. The procedure was repeated with the other two possible pairings, i.e., A+C with B, and B+C with A. Accordingly, each triplet required three assays in order to assess each of the three possible pairings.
(§3) The bacterial innoculum was prepared as described in Example 1.
(§4) A sterile polystyrene 96-well plate was used to dilute the antimicrobial agents A, B and C. Using aseptic technique, 100 microliters of distilled water was placed in each test well. The dilution scheme was separated into two parts. First, the dilution of the combined agents A and B and then second, the dilution of agent C. A dilution of agents A and B was accomplished by placing 50 microliters of stock solution for agent A in the first well of each column. Next, 50 microliters of stock solution for agent B was added to each of the first wells of each column. Accordingly, the first well of each column included 50 microliters of stock solution for agent A and 50 microliters of stock solution for agent B. 100 microliters from the first row in each column was then transferred to the next well in the column and so on down the column. Each transfer was a one-half dilution of the preceding concentration.
(§5) The dilution of antimicrobial agent C was accomplished by adding 100 microliters of agent C stock solution to the first well of each row. 100 microliters from the first well in each row was then transferred to the next well and so on across the row of test wells. Each transfer was a one-half dilution of the preceding concentration. FIG. 1 is a schematic illustration of the concentrations of antimicrobial agents A, B and C derived from the dilution scheme described above. […] The concentration of agent C decreases across a row from left to right. […]
(§6) The 96-well plate was then incubated under conditions that varied by microorganism. […] The plate was then read for microbial growth with a spectrophotometer by optical density. […]

Series [2] relates to Fusobacterium nucleatum (FN). The description is as above. The series is classed as cell-based, Fusobacterium nucleatum ATCC 10933. The conditions noted are these: FN, agent used alone.
Description: as §1, §2, §3, §4, §5, §6

Series [3] deals with Porphyromonas gingivalis (PG). The description is as above. Format: cell-based, Porphyromonas gingivalis ATCC 33277. The conditions noted are these: PG, agent used alone.
Description: as §1, §2, §3, §4, §5, §6

Series [4] relates to Streptococcus mutans (SM). The series is described as above. The series is classed as cell-based, Streptococcus mutans ATCC 25175. The conditions noted are these: SM, agent used alone.
Description: as §1, §2, §3, §4, §5, §6

Series [5] relates to Streptococcus sanguis (SS). Described as above. The series is classed as cell-based, Streptococcus sanguis ATCC 49295. The conditions noted are these: SS; agent used alone.
Description: as §1, §2, §3
A sterile polystyrene 96-well plate was used to dilute the antimicrobial agents A, B and C. Using aseptic technique, 100 microliters of distilled water was placed in each test well. The dilution scheme was separated into two parts. First, the dilution of the combined agents A and B and then second, the dilution of agent C. A dilution of agents A and B was accomplished by placing 50 microliters of stock solution for agent A in the first well of each column. Next, 50 microliters of stock solution for agent B was added to each of the first wells of each column. […]
as §6

In series [6] the test system is Campylobacter rectus (CR). The series is described as above. The conditions noted are these: CR, agent used alone, read-out: MIC, individual agent alone. The series is classed as cell-based.
Description: as §1, §2, §3
A sterile polystyrene 96-well plate was used to dilute the antimicrobial agents A, B and C. […]
as §6

The format of series [7] is in vivo, human volunteers. The conditions noted are these: in vivo. As to the method: The saliva samples were refrigerated until analysis.
To either 2.7 grams unchewed gum sample or the remaining bolus of chewed gum, was added 3.0 millileters of internal standard (Hesperetin) in methanol, 6.0 milliliters hexane and 3.0 milliliters distilled water. Samples were homogenized using a Polytron Homogenizer model PT10/35 from Brinkmann Instruments, fitted with a PTA10TS generator for at least 30 seconds on ice, or until no lumps of non-dispersed gum were visible in the sample. Samples were then centrifuged in a Dynac Tabletop Centrifuge at top speed for ten minutes. The lower, amber, aqueous/methanol layer were then filtered through 25 millimeter, 0.45 micrometer nylon Acrodisc syringe filters from Gelman into 4 milliliter autosampler vials and tightly capped with polytetrafluorothylene lined septum in open-top screw caps. These samples were then analyzed using high pressure liquid chromatography for glabridin and/or glycyrrhizic and 18β-glycyrrhetinic acid, and were quantitated against a 4-point linear curve prepared by spiking approximately 2.7 grams unchewed samples of Wrigley Extra Sugarfree Peppermint gum with known levels of purified glabridin, glycyrrhizic acid monoammonium salt and 18β-glycyrrhetinicacid.
For the analysis of the gum bolus, both chewed and unchewed, a Polytron Homogenizer, described above was used. The gum sample was placed in a heavy wall glass tube. Internal standard ([…]) ethyl acetate ([…]) and water ([…]) were added. The sample was homogenized for approximately 30 seconds, or until no particles could be seen. The tubes were then centrifuged for 10 minutes on a clinical centrifuge at maximum speed. The supernatant was injected directly onto the gas chromatograph. The oven program was modified to allow resolution of ROF1 components from those of the peppermint flavoring. The gas chromatograph was calibrated using a three point standard curve to quantify the following components: menthol (flavor); geraniol (oil geraniol); cedrene, thujopsene (RC1); pinene, cineol, camphor, bornyl acetate (ROF1). The initial temperature was decreased from 140° C. to 100° C. The temperature gradient was changed from 10° C./minute to 4° C./minute. The split ratio was 50:1, and injection volume was 1 μL as per the method. A cleanup gradient was run every fifth sample as described previously.
A recovery study was performed in triplicate using blank Wrigley's Peppermint Gum (chewed and unchewed) spiked with stand and solution. Recovery was calculated relative to a direct standard consisting of spike solution without sample matrix.

The test system of series [8] is Porphyromonas gingivalis. The experiment in a line: MIC of each agent used in Example 5. The series is classed as cell-based. The conditions noted are these: starting dilution 0.1 percent in methanol, MIC defined in micrograms per milliliter, read-out: MIC relative to Porphyromonas gingivalis used in Example 5. As to the method: The MIC Range was determined against a standard panel of five organisms that included Actinomyces viscosus, Fusobacterium nucleatum, Porphyromonas gingivalis, Streptococcus mutans, and Stretococcus sanguis. The starting dilution was 0.1 percent in methanol. The MIC used in this Example 5 was the MIC for each agent relative to Porphyromonas gingivalis.

For series [9] the following is noted: for Rate of release from gum: in words.
Description: (§7) Ten volunteers chewed 2.7 grams samples of each gum formulation and provided saliva samples at intervals and the gum bolus at the end of the 25 minute chewing period. High pressure liquid chromatography and gas chromatography were used to analyze the gum bolus and saliva non-volatile and volatile components, respectively.
(§8) Saliva samples were collected from each of the individuals prior to chewing 2.7 grams of gum, and at 1.0, 2.5, 5.0, 10.0, and 25.0 minutes while chewing the gum. The saliva samples were refrigerated until analysis. The gum bolus that remained after 25 minutes was saved and extracted immediately or stored refrigerated until extraction for analysis.
(§9) Samples were Vortex-mixed in Multi-tube vortex mixer for one minute and then centrifuged at top speed in clinical centrifuge for two minutes. Supernatants were carefully transferred to 1 milliliter glass shell vials and capped. Analysis was carried out either by isocratic elution for glabridin-only samples, or gradient elution for the samples containing the glycyrrhizic and 18β-glycyrrhetinic acids using high pressure liquid chromatography. Glabridin concentrations were converted to GLY concentrations by taking the weight percent glabridin in GLY to be 2.74 percent.
(§10) The calibration curve was prepared using spiked blank saliva.
(§11) For saliva, the essential oils of menthol, cedarwood oil, geraniol and Rosmarinus officianalis were determined by capillary gas chromatography. The split ratio was 25:1. The injection volume was 2 μL. Four hundred μL of saliva was extracted from the 1 milliliter of ethyl acetate containing an internal standard (hexadecane) in 1.5 milliliter Eppendorf tubes. After centrifugation, the organic layer was injected directly into the Hewlett-Packard 6890 gas chromatograph. […] For this reason, only the samples from 0 to 10 minutes were analyzed. A cleanup gradient was run from 190 to 300° C. every fifth sample to remove less volatile interferences from the column.
Series [10] is described as follows: clinical. The conditions noted are these: human, in vivo.
Description: as §7, §8, §9, §10, §11

For `CC(C)=CCC/C(C)=C/CO` [GRA1, trans-3,7-dimethyl-2,6-octadien-1-ol], the “MIC, individual agent alone” value in series [1] was 62.5 µg/mL and 125 µg/mL; in series [2] it was 62.5 µg/mL and 125 µg/mL; in [3], 62.5 µg/mL; in series [4] it was 125 µg/mL; in series [5], 125 µg/mL and 62.5 µg/mL and 250 µg/mL. Besides, the MIC in series [1] (Actinomyces viscosus, read-out: MIC, individual agent alone) was determined as 125 µg/mL; in [2] (Fusobacterium nucleatum, read-out: MIC, individual agent alone), 62.5 µg/mL; in series [3] (Porphyromonas gingivalis, read-out: MIC, individual agent alone) it was 62.5 µg/mL; in series [4] (Streptococcus mutans, read-out: MIC, individual agent alone), 125 µg/mL; in series [6], 250 µg/mL; in [8] it was 7.8 µg/mL. In series [7], the “Release from Chewed Gum Bolus after 25 min” value came out at 34%. Moreover, the “Above MIC in Saliva (Y/N)” value in [9] (concentration in saliva at any time above MIC relative to Porphyromonas gingivalis) is “No”. Also, in series [9] (human, in vivo), the “Time maintaining a presence in the oral cavity” value is recorded as “about 25 minutes”. Also, the “Rate of release from gum” value in series [9] (listed as GRA) is “released more slowly and over a longer period of time”; in series [9] (listed as geraniol), “released from a gum base less quickly and over a longer period of time”. In series [10], this compound had a concentration at 1 min of 6000 ng/mL. In [10], this compound showed a concentration at 2.5 min of 6000 ng/mL. In addition, in series [10], the concentration at 5 min came out at 7000 ng/mL. In addition, the concentration at 10 min in series [10] came to 5000 ng/mL.
